Measured values as given in PMC3280214, “Structure Based Discovery of Small Molecules to Regulate the Activity of Human Insulin Degrading Enzyme” (PLoS ONE, 2012).

Key:
[1] = test system: HeLa cells; assay: MTT assay for cell viability; assay type: cell-based, human; conditions: 24 h; for cytotoxicity at high concentrations: 1 to 100 µM
Description: We characterized the activity of novel compounds in a cellular assay to establish whether there were any cytotoxic effects. We used an established MTT (3-(4,5-dimethylthiazolyl-2)-2, 5-diphenyltetrazolium bromide or thiazolyl blue) method using HELA cells to determine whether the small molecule affects cell viability. In this method, a purple formazan dye forms as a result of the cleavage of the yellow tetrazolium MTT within metabolically active cells. The resulting precipitate of the intracellular formazan can be dissolved in a detergent solution and quantified spectrophotometrically at 595 nm. We measured the cytotoxicity by incubating HELA cells in the presence of novel compounds at concentrations ranging from 1 to 100 µM for 24 h. Cell viability was measured using the MTT method after […] culture. The extent of cell death was expressed relative to a control containing DMSO. […] Therefore, as a next step we tested the effects of lead compounds on insulin catabolism using HeLa cells.
The cytotoxicity assay was performed using human cervical cancer HeLa cells. Cells were cultured at 37°C under a humidified atmosphere of 5% CO2 in medium supplemented with 10% fetal bovine serum and dispersed in replicate 96-well plates with 2.5×10^4 cells/well. Compounds were then added. After 24 hours exposure to the chemical compounds, the cell viability was determined by 3-[4,5-dimethylthiazol-2-yl]-2,5-diphenpyltetrazolium bromide (MTT) assay. The optical density (OD) of the wells was determined using ELISA plate reader at a test wavelength of 600 nm and a reference wavelength of 630 nm. Each measurement was carried out in triplicate.

[2] = target: T1, IDE (Homo sapiens, UniProt P14735); assay: FAβB (amyloid-β) degradation assay; assay type: biochemical; conditions: 20 µM compound
T1 construct: made in house; host or cells: E. coli BL21
T1 sequence (P14735 1-1019): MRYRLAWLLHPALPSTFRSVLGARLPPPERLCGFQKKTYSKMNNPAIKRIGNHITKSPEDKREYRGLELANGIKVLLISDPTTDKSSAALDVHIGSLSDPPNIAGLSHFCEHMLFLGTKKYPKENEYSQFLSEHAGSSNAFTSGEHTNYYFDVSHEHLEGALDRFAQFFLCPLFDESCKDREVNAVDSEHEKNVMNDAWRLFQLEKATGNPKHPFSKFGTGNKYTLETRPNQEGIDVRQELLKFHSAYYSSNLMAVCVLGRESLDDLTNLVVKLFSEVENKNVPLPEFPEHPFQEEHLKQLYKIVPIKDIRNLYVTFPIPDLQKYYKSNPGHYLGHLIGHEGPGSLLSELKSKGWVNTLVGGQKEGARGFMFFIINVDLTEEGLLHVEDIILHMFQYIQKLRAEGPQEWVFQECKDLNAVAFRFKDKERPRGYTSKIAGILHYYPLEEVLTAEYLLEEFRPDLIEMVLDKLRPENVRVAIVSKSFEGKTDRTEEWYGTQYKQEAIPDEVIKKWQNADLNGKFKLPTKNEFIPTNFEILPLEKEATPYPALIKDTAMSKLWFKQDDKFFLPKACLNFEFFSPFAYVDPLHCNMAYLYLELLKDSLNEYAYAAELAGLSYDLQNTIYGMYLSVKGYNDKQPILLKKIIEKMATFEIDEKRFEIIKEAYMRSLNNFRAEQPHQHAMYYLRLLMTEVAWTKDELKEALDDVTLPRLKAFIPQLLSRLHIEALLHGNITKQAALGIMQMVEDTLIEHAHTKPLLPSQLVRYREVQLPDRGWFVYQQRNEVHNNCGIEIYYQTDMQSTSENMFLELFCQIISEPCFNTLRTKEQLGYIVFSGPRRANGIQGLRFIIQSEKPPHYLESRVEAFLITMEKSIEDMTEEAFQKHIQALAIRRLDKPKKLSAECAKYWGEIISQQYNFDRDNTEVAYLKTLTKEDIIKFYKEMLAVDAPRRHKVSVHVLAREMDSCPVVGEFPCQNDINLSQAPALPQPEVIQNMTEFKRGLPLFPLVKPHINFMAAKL
Protocol: The 10 compounds given in Table 1 were subjected to further characterization and their effect was measured on the proteolytic activity of IDE using different substrates. Initially, activity assays were carried out at fixed 20 µM concentrations for all molecules to identify the effect of those compounds on IDE activity. IDE activity was quantified by monitoring the change in fluorescence for the proteolysis of fluorogenic-substrate V, FITC- insulin-bound antibody, and FAβB by recombinant human IDE purified from E.coli BL21 [6], [18], [19]. […] Also, D6 increased the amyloid-β degradation by 20% (Fig. S1C). Further, D10 enhanced IDE-mediated FITC-insulin-mAb and substrate V degradation by 290% and 65%, respectively (Fig. S1A, B). Next, an EC50 value of each molecule that enhanced IDE activity was determined with a dose response assay, where specific activity of IDE was measured with different concentrations of the lead compounds and then the plot was fit to Sigmoidal Hill-4 parameter equation. […] EC50 value for D3 on insulin degradation was approximately measured as 20 µM (Fig. S2C), whereas EC50 value for D6 on amyloid-β degradation was 2 µM (Fig. S2D). […] Among all these four compounds, D10 seems to be the potent activator of IDE, when proteolysis of insulin is considered.
This assay was performed as follows: 10 µl of 50 nM of FAβB was dissolved in a buffer which consisted of 50 mM HEPES, 100 mM NaCl, % 0,05 (v/v) bovine serum albumin, at a pH of 7.4. The reaction was initiated in a total volume of 100 µl with 20 µM drugs by adding 20 µl of 0.02 mg/ml of IDE for 2.5 h at 37°C. The reaction was stopped by adding 2 µl of 100 mM of protease inhibitor (1, 10-phenanthroline). Uncleaved FAβB was precipitated with Neutravidin- coated agarose beads by gentle rocking for 30 min. and centrifugation for 10 min at 14000 g. The supernatant was transferred to the black 96 well plates and increase in fluorescence (488 excitation, 525 emission) was measured with a multi-label plate reader.
The effect of the lead compounds on the initial rate of proteolysis of IDE was determined by measurement in fluorescence with time both in the presence and absence of the lead compounds. The kinetic data for IDE-mediated insulin, substrate V and amyloid-β degradation were plotted and fitted using SigmaPlot software (Sigmoidal, Hill, 4 parameter). For the initial rate calculations, kinetic data were fitted using SigmaPlot software (Hyperbola; Single Rectangular I, 3 Parameter).

| SMILES | cytotoxicity at high concentrations [1] | effect on proteolysis activity of IDE for amyloid-β [2] | cell viability ([1]; 7.5 µM) | cell viability ([1]; 100 µM) [%] |
| --- | --- | --- | --- | --- |
| COc1ccc(C2C(C(=O)Nc3ccccc3)=C(C)N=c3sc(=Cc4cn(C)nc4C)c(=O)n32)cc1 (stereo not shown) [Compound D3] | did not demonstrate any toxicity | did not have any effect |  |  |
| Nc1c(C(=O)Nc2ccccc2F)c2ccccn2c1C(=O)c1ccc2c(c1)CCCC2 [Compound D4] |  | did not have any effect | approximately 85% | 60 |
| Cc1nn(-c2ccccc2)c2nc(-c3cccc([N+](=O)[O-])c3)n3c4ccccc4nc3c2c1=O [Compound D10] | did not demonstrate any toxicity | did not have any effect |  |  |
